Experimental data from US20100092526A1, “NANOEMULSION THERAPEUTIC COMPOSITIONS AND METHODS OF USING THE SAME” (NanoBio Corporation, priority 2008, published 2010).
≈ marks a conversion by molar mass, not a printed value.

Assays:
[1] = tested on: Stenotrophomonas maltophilia; experiment: MIC/MBC against CF isolates (CLSI, alamar blue); details: for MBC / MIC: Stenotrophomonas maltophilia
Acinetobacter baumannii [2] = experiment: MIC/MBC of nanoemulsions against gram-negative isolates (CLSI, alamar blue); type: cell-based; details: Acinetobacter baumannii (n = 5)
Burkholderia cenocepacia = experiment: MIC/MBC against CF isolates (CLSI, alamar blue); details: for MBC / MIC: Burkholderia cenocepacia
Proteus mirabilis = experiment: MIC/MBC of nanoemulsions against gram-negative isolates (CLSI, alamar blue); type: cell-based; details: Proteus mirabilis (n = 5)
Acinetobacter baumannii [3] = experiment: MIC/MBC against clinical isolates (CLSI, alamar blue); details: Acinetobacter baumannii
[4] = CF Stenotrophomonas isolate NB41
[5] = CF Stenotrophomonas isolate NB42
[6] = CF Stenotrophomonas isolate NB43
[7] = CF Stenotrophomonas isolate NB44
[8] = CF Stenotrophomonas isolate NB45
[9] = CF Stenotrophomonas isolate Steno 1
[10] = CF Stenotrophomonas isolate Steno 2
[11] = CF Stenotrophomonas isolate Steno 3
[12] = CF Stenotrophomonas isolate Steno 4
[13] = CF Stenotrophomonas isolate Steno 6
[14] = CF Stenotrophomonas isolate Steno 8
[15] = Stenotrophomonas, each drug alone
[16] = nanoemulsions in the presence of 5 mM EDTA

**Q.** With `NC[C@H]1O[C@H](O[C@H]2[C@H](O)[C@@H](O[C@H]3O[C@H](CO)[C@@H](O)[C@H](N)[C@H]3O)[C@H](N)C[C@@H]2N)[C@H](N)C[C@@H]1O` [Tobramycin] as the compound, how does the MBC [1, 4] read?
**A.** > 32 µg/mL

**Q.** And the MIC [1, 4]?
**A.** > 32 µg/mL

**Q.** And the MBC [1, 5]?
**A.** > 32 µg/mL

**Q.** And the MIC [1, 5]?
**A.** 32 µg/mL (≈ 68.4 µM)

**Q.** What about the MBC [1, 6] of the same compound?
**A.** > 32 µg/mL

**Q.** What about the MIC [1, 6] of the same compound?
**A.** > 32 µg/mL

**Q.** What about the MBC [1, 7] of the same compound?
**A.** > 32 µg/mL

**Q.** What about the MIC [1, 7] of the same compound?
**A.** > 32 µg/mL

**Q.** What about the MBC [1, 8] of the same compound?
**A.** > 32 µg/mL

**Q.** What about the MIC [1, 8] of the same compound?
**A.** > 32 µg/mL

**Q.** What about the MBC [1, 9] of the same compound?
**A.** > 32 µg/mL

**Q.** What about the MIC [1, 9] of the same compound?
**A.** > 32 µg/mL

**Q.** And the MBC [1, 10]?
**A.** > 32 µg/mL

**Q.** And the MIC [1, 10]?
**A.** > 32 µg/mL

**Q.** What about the MBC [1, 11] of the same compound?
**A.** > 32 µg/mL

**Q.** And the MIC [1, 11]?
**A.** > 32 µg/mL

**Q.** What about the MBC [1, 12] of the same compound?
**A.** > 32 µg/mL

**Q.** What about the MIC [1, 12] of the same compound?
**A.** > 32 µg/mL

**Q.** What about the MBC [1, 13] of the same compound?
**A.** 32 µg/mL (≈ 68.4 µM)

**Q.** What about the MIC [1, 13] of the same compound?
**A.** 16 µg/mL (≈ 34.2 µM)

**Q.** What about the MBC [1, 14] of the same compound?
**A.** > 32 µg/mL

**Q.** What about the MIC [1, 14] of the same compound?
**A.** > 32 µg/mL

**Q.** What about the “MBC 50” value [1, 15] of the same compound?
**A.** >32 µg/mL

**Q.** What about the “MBC 90” value [1, 15] of the same compound?
**A.** >32 µg/mL

**Q.** And the “MIC50” value [1, 15]?
**A.** >32 µg/mL

**Q.** What about the “MIC90” value [1, 15] of the same compound?
**A.** >32 µg/mL

**Q.** What about the “% resistant” value (Acinetobacter baumannii [2]) of the same compound?
**A.** 20.0%

**Q.** And the “% susceptible” value (Acinetobacter baumannii [2])?
**A.** 80.0%

**Q.** And the MIC50 (Acinetobacter baumannii [2]; [16])?
**A.** 0.5 µg/mL

**Q.** And the MBC (Burkholderia cenocepacia; CF Burkholderia isolate NB21)?
**A.** > 32 µg/mL

**Q.** What about the MIC (Burkholderia cenocepacia; CF Burkholderia isolate NB21) of the same compound?
**A.** 32 µg/mL (≈ 68.4 µM)

**Q.** And the MBC (Burkholderia cenocepacia; CF Burkholderia isolate NB22)?
**A.** > 32 µg/mL

**Q.** And the MIC (Burkholderia cenocepacia; CF Burkholderia isolate NB22)?
**A.** > 32 µg/mL

**Q.** And the MBC (Burkholderia cenocepacia; CF Burkholderia isolate NB23)?
**A.** > 32 µg/mL

**Q.** And the MIC (Burkholderia cenocepacia; CF Burkholderia isolate NB23)?
**A.** > 32 µg/mL

**Q.** What about the MBC (Burkholderia cenocepacia; CF Burkholderia isolate NB24) of the same compound?
**A.** > 32 µg/mL

**Q.** And the MIC (Burkholderia cenocepacia; CF Burkholderia isolate NB24)?
**A.** > 32 µg/mL

**Q.** And the MBC (Burkholderia cenocepacia; CF Burkholderia isolate NB25)?
**A.** > 32 µg/mL

**Q.** What about the MIC (Burkholderia cenocepacia; CF Burkholderia isolate NB25) of the same compound?
**A.** > 32 µg/mL

**Q.** And the MBC (Burkholderia cenocepacia; CF Burkholderia isolate NB26)?
**A.** > 32 µg/mL

**Q.** What about the MIC (Burkholderia cenocepacia; CF Burkholderia isolate NB26) of the same compound?
**A.** > 32 µg/mL

**Q.** What about the MBC (Burkholderia cenocepacia; CF Burkholderia isolate NB27) of the same compound?
**A.** > 32 µg/mL

**Q.** What about the MIC (Burkholderia cenocepacia; CF Burkholderia isolate NB27) of the same compound?
**A.** > 32 µg/mL

**Q.** And the MBC (Burkholderia cenocepacia; CF Burkholderia isolate NB28b)?
**A.** 4 µg/mL (≈ 8.56 µM)

**Q.** What about the MIC (Burkholderia cenocepacia; CF Burkholderia isolate NB28b) of the same compound?
**A.** 1 µg/mL (≈ 2.14 µM)

**Q.** What about the MBC (Burkholderia cenocepacia; CF Burkholderia isolate NB29) of the same compound?
**A.** > 32 µg/mL

**Q.** And the MIC (Burkholderia cenocepacia; CF Burkholderia isolate NB29)?
**A.** > 32 µg/mL

**Q.** What about the MBC (Burkholderia cenocepacia; CF Burkholderia isolate NB30) of the same compound?
**A.** 32 µg/mL (≈ 68.4 µM)

**Q.** What about the MIC (Burkholderia cenocepacia; CF Burkholderia isolate NB30) of the same compound?
**A.** 32 µg/mL (≈ 68.4 µM)

**Q.** And the “MBC 50” value (Burkholderia cenocepacia; Burkholderia, each drug alone)?
**A.** >32 µg/mL

**Q.** And the “MBC 90” value (Burkholderia cenocepacia; Burkholderia, each drug alone)?
**A.** >32 µg/mL

**Q.** And the “MIC90” value (Burkholderia cenocepacia; Burkholderia, each drug alone)?
**A.** >32 µg/mL

**Q.** What about the “% resistant” value (Proteus mirabilis) of the same compound?
**A.** 0.0%

**Q.** What about the “% susceptible” value (Proteus mirabilis) of the same compound?
**A.** 100.0%

**Q.** What about the MIC50 (Proteus mirabilis; [16]) of the same compound?
**A.** 1 µg/mL

**Q.** And the “MIC Range” value (Proteus mirabilis; nanoemulsions in the presence of 5 mM EDTA, in µg/mL)?
**A.** 0.25-1

**Q.** And the MIC50 (Acinetobacter baumannii [3])?
**A.** 1 µg/mL (≈ 2.14 µM)

**Q.** And the MIC90 (Acinetobacter baumannii [3])?
**A.** 16 µg/mL (≈ 34.2 µM)

**Q.** And the MBC (Acinetobacter baumannii [3]; Acinetobacter isolate NB31)?
**A.** 1 µg/mL (≈ 2.14 µM)

**Q.** And the MIC (Acinetobacter baumannii [3]; Acinetobacter isolate NB31)?
**A.** 1 µg/mL (≈ 2.14 µM)

**Q.** What about the MBC (Acinetobacter baumannii [3]; Acinetobacter isolate NB32) of the same compound?
**A.** 4 µg/mL (≈ 8.56 µM)

**Q.** What about the MIC (Acinetobacter baumannii [3]; Acinetobacter isolate NB32) of the same compound?
**A.** 1 µg/mL (≈ 2.14 µM)

**Q.** What about the MBC (Acinetobacter baumannii [3]; Acinetobacter isolate NB33) of the same compound?
**A.** 8 µg/mL (≈ 17.1 µM)

**Q.** And the MIC (Acinetobacter baumannii [3]; Acinetobacter isolate NB33)?
**A.** 2 µg/mL (≈ 4.28 µM)

**Q.** And the MBC (Acinetobacter baumannii [3]; Acinetobacter isolate NB34)?
**A.** > 32 µg/mL

**Q.** What about the MIC (Acinetobacter baumannii [3]; Acinetobacter isolate NB34) of the same compound?
**A.** 16 µg/mL (≈ 34.2 µM)

**Q.** What about the MBC (Acinetobacter baumannii [3]; Acinetobacter isolate NB35) of the same compound?
**A.** 16 µg/mL (≈ 34.2 µM)

**Q.** And the MIC (Acinetobacter baumannii [3]; Acinetobacter isolate NB35)?
**A.** 2 µg/mL (≈ 4.28 µM)

**Q.** And the MBC (Acinetobacter baumannii [3]; Acinetobacter isolate NB36)?
**A.** 0.5 µg/mL (≈ 1.07 µM)

**Q.** What about the MIC (Acinetobacter baumannii [3]; Acinetobacter isolate NB36) of the same compound?
**A.** 0.5 µg/mL (≈ 1.07 µM)

**Q.** What about the MBC (Acinetobacter baumannii [3]; Acinetobacter isolate NB37) of the same compound?
**A.** 2 µg/mL (≈ 4.28 µM)

**Q.** And the MIC (Acinetobacter baumannii [3]; Acinetobacter isolate NB37)?
**A.** 0.5 µg/mL (≈ 1.07 µM)
